# Assay results taken from PubChem BioAssay (NCI).
#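 How tested: cells in 96-well plates exposed to compound for 48 hours at five concentrations. TGI: concentration producing complete growth inhibition.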
# Key:
# Assay in all cases: NCI-60 cell line screen, 48 h
# COLO 205 colon = test system: COLO 205 colon
# SF-539 CNS = test system: SF-539 CNS
# OVCAR-8 ovarian = test system: OVCAR-8 ovarian
# BT-549 breast = test system: BT-549 breast
# SNB-19 CNS = test system: SNB-19 CNS
# HL-60(TB) leukemia = test system: HL-60(TB) leukemia
# HCT-15 colon = test system: HCT-15 colon
# HS 578T breast = test system: HS 578T breast
# CCRF-CEM leukemia = test system: CCRF-CEM leukemia
# OVCAR-4 ovarian = test system: OVCAR-4 ovarian
# SK-MEL-28 melanoma = test system: SK-MEL-28 melanoma
# RPMI-8226 leukemia = test system: RPMI-8226 leukemia
# SNB-75 CNS = test system: SNB-75 CNS
# HCT-116 colon = test system: HCT-116 colon
# UACC-62 melanoma = test system: UACC-62 melanoma
# A549 NSCLC = test system: A549 NSCLC
# HT29 colon = test system: HT29 colon
# A498 renal = test system: A498 renal
# OVCAR-3 ovarian = test system: OVCAR-3 ovarian
# NCI-H460 lung = test system: NCI-H460 lung
# U251 CNS = test system: U251 CNS
# ACHN renal = test system: ACHN renal
# SR leukemia = test system: SR leukemia
# SK-MEL-5 melanoma = test system: SK-MEL-5 melanoma
# MOLT-4 leukemia = test system: MOLT-4 leukemia
# SN12C renal = test system: SN12C renal
# SF-268 CNS = test system: SF-268 CNS
# TK-10 renal = test system: TK-10 renal
# MDA-N = test system: MDA-N
# UO-31 renal = test system: UO-31 renal
# CAKI-1 renal = test system: CAKI-1 renal
# PC-3 prostate = test system: PC-3 prostate
# SW-620 colon = test system: SW-620 colon
# MDA-MB-231 breast = test system: MDA-MB-231 breast
# T-47D breast = test system: T-47D breast
# EKVX NSCLC = test system: EKVX NSCLC
# RXF 393 renal = test system: RXF 393 renal
# NCI/ADR-RES ovarian = test system: NCI/ADR-RES ovarian
# SK-OV-3 ovarian = test system: SK-OV-3 ovarian
# K-562 leukemia = test system: K-562 leukemia
# LOX IMVI melanoma = test system: LOX IMVI melanoma
# SF-295 CNS = test system: SF-295 CNS
# MCF7 breast = test system: MCF7 breast
# KM12 colon = test system: KM12 colon
# OVCAR-5 ovarian = test system: OVCAR-5 ovarian
# NCI-H23 lung = test system: NCI-H23 lung
# NCI-H226 lung = test system: NCI-H226 lung
# IGROV1 ovarian = test system: IGROV1 ovarian
# M14 melanoma = test system: M14 melanoma
# DU-145 prostate = test system: DU-145 prostate
# UACC-257 melanoma = test system: UACC-257 melanoma
# HCC-2998 colon = test system: HCC-2998 colon
# HOP-62 NSCLC = test system: HOP-62 NSCLC
# MALME-3M melanoma = test system: MALME-3M melanoma
# 786-0 renal = test system: 786-0 renal
# HOP-92 NSCLC = test system: HOP-92 NSCLC
# MDA-MB-435 = test system: MDA-MB-435
# SK-MEL-2 melanoma = test system: SK-MEL-2 melanoma
# NCI-H522 lung = test system: NCI-H522 lung
smiles,measurement,setting,value
COc1ccccc1N1C(=O)C2C3c4ccccc4C(OC(C)=O)(c4ccccc43)C2C1=O (stereo not drawn),TGI,COLO 205 colon,> 100 µM
same,TGI,SF-539 CNS,> 100 µM
same,TGI,OVCAR-8 ovarian,> 100 µM
same,TGI,BT-549 breast,> 100 µM
same,TGI,SNB-19 CNS,> 100 µM
same,TGI,HL-60(TB) leukemia,> 100 µM
same,TGI,HCT-15 colon,> 100 µM
same,TGI,HS 578T breast,52.1 µM
same,TGI,CCRF-CEM leukemia,> 100 µM
same,TGI,OVCAR-4 ovarian,> 100 µM
same,TGI,SK-MEL-28 melanoma,> 100 µM
same,TGI,RPMI-8226 leukemia,> 100 µM
same,TGI,SNB-75 CNS,38.8 µM
same,TGI,HCT-116 colon,> 100 µM
same,TGI,UACC-62 melanoma,> 100 µM
same,TGI,A549 NSCLC,> 100 µM
same,TGI,HT29 colon,> 100 µM
same,TGI,A498 renal,> 100 µM
same,TGI,OVCAR-3 ovarian,> 100 µM
same,TGI,NCI-H460 lung,> 100 µM
same,TGI,U251 CNS,> 100 µM
same,TGI,ACHN renal,> 100 µM
same,TGI,SR leukemia,> 100 µM
same,TGI,SK-MEL-5 melanoma,> 100 µM
same,TGI,MOLT-4 leukemia,> 100 µM
same,TGI,SN12C renal,> 100 µM
same,TGI,SF-268 CNS,> 100 µM
same,TGI,TK-10 renal,> 100 µM
same,TGI,MDA-N,> 100 µM
same,TGI,UO-31 renal,> 100 µM
same,TGI,CAKI-1 renal,> 100 µM
same,TGI,PC-3 prostate,> 100 µM
same,TGI,SW-620 colon,> 100 µM
same,TGI,MDA-MB-231 breast,> 100 µM
same,TGI,T-47D breast,> 100 µM
same,TGI,EKVX NSCLC,> 100 µM
same,TGI,RXF 393 renal,> 100 µM
same,TGI,NCI/ADR-RES ovarian,> 100 µM
same,TGI,SK-OV-3 ovarian,> 100 µM
same,TGI,K-562 leukemia,> 100 µM
same,TGI,LOX IMVI melanoma,> 100 µM
same,TGI,SF-295 CNS,> 100 µM
same,TGI,MCF7 breast,> 100 µM
same,TGI,KM12 colon,> 100 µM
same,TGI,OVCAR-5 ovarian,> 100 µM
same,TGI,NCI-H23 lung,> 100 µM
same,TGI,NCI-H226 lung,> 100 µM
same,TGI,IGROV1 ovarian,> 100 µM
same,TGI,M14 melanoma,> 100 µM
same,TGI,DU-145 prostate,> 100 µM
same,TGI,UACC-257 melanoma,> 100 µM
same,TGI,HCC-2998 colon,> 100 µM
same,TGI,HOP-62 NSCLC,> 100 µM
same,TGI,MALME-3M melanoma,> 100 µM
same,TGI,786-0 renal,> 100 µM
Cc1ccccc1N=Nc1cc(C)c(N=Nc2c(O)ccc3ccccc23)cc1C,TGI,COLO 205 colon,> 100 µM
same,TGI,OVCAR-8 ovarian,> 100 µM
same,TGI,BT-549 breast,> 100 µM
same,TGI,HOP-92 NSCLC,> 100 µM
same,TGI,SNB-19 CNS,> 100 µM
same,TGI,HCT-15 colon,> 100 µM
same,TGI,HS 578T breast,> 100 µM
same,TGI,CCRF-CEM leukemia,> 100 µM
same,TGI,OVCAR-4 ovarian,> 100 µM
same,TGI,SK-MEL-28 melanoma,> 100 µM
same,TGI,RPMI-8226 leukemia,> 100 µM
same,TGI,SNB-75 CNS,> 100 µM
same,TGI,HCT-116 colon,> 100 µM
same,TGI,UACC-62 melanoma,> 100 µM
same,TGI,A549 NSCLC,> 100 µM
same,TGI,HT29 colon,> 100 µM
same,TGI,A498 renal,> 100 µM
same,TGI,OVCAR-3 ovarian,> 100 µM
same,TGI,MDA-MB-435,> 100 µM
same,TGI,U251 CNS,> 100 µM
same,TGI,ACHN renal,> 100 µM
same,TGI,SK-MEL-5 melanoma,> 100 µM
same,TGI,MOLT-4 leukemia,> 100 µM
same,TGI,SN12C renal,> 100 µM
same,TGI,SF-268 CNS,> 100 µM
same,TGI,TK-10 renal,> 100 µM
same,TGI,MDA-N,> 100 µM
same,TGI,UO-31 renal,> 100 µM
same,TGI,CAKI-1 renal,> 100 µM
same,TGI,PC-3 prostate,> 100 µM
same,TGI,SW-620 colon,> 100 µM
same,TGI,SK-MEL-2 melanoma,> 100 µM
same,TGI,MDA-MB-231 breast,> 100 µM
same,TGI,T-47D breast,> 100 µM
same,TGI,EKVX NSCLC,> 100 µM
same,TGI,RXF 393 renal,> 100 µM
same,TGI,NCI/ADR-RES ovarian,> 100 µM
same,TGI,SK-OV-3 ovarian,> 100 µM
same,TGI,K-562 leukemia,> 100 µM
same,TGI,NCI-H522 lung,> 100 µM
same,TGI,LOX IMVI melanoma,> 100 µM
same,TGI,SF-295 CNS,> 100 µM
same,TGI,KM12 colon,> 100 µM
same,TGI,OVCAR-5 ovarian,> 100 µM
same,TGI,NCI-H23 lung,> 100 µM
same,TGI,NCI-H226 lung,> 100 µM
same,TGI,IGROV1 ovarian,> 100 µM
same,TGI,M14 melanoma,> 100 µM
same,TGI,DU-145 prostate,> 100 µM
same,TGI,UACC-257 melanoma,> 100 µM
same,TGI,HOP-62 NSCLC,> 100 µM
same,TGI,MALME-3M melanoma,> 100 µM
same,TGI,786-0 renal,> 100 µM
